Experiments:
SK-MEL-28 [1] = assay: WST-1 test (mitochondrial activity); assay type: cell-based, human; conditions: modified peptides, conc 10 µM, untreated = 1
SK-MEL-28 [2] = assay: Cell counting after 7 day peptide treatment; assay type: cell-based, human; conditions: modified (inhibitor/MMP2, MMP9 site) peptides, conc 10 µM, start count 10
Protocol: (§1) The ability to block interaction of MITF, SOX10 and STAT3 with active transcriptional complex and inhibit proliferation and stimulate apoptosis of melanoma cells were tested on human melanoma cell lines SK-MEL-28 and WM 266-4, and mouse melanoma cell line B16. Methods. Human melanoma cell lines SK-MEL-28 and WM 2664 and mouse melanoma cell line B16 were obtained from the American Tissue Culture Collection (ATCC). Cells were cultured according to recommendations of ATCC (DMEM, 10% FCS, penicillin+streptomycin) and used in experiments after two passages in the laboratory. Cells were grown in 24 well plates, each treatment in triplicates. Cells were plated 16 hours prior treatments started. Peptides were added to the media, and media was changed every day during 7 day experiment. CPP concentration was 10 μM For cell counting, cells were trypsinized (0.25% Trypsin, 2 mM EDTA) in Ca^+2, Mg^+2 free PBS. Cells were precipitated and resuspended in 100 μl of PBS, and 5 μl were removed for counting Methods. Human melanoma cell lines SK-MEL-28 and WM 266-4 were obtained from the American Tissue Culture Collection (ATCC) and were cultured according to recommendations of ATCC (DMEM, 10% FCS, penicillin+streptomycin). Human keratinocytes were obtained from Clonetics and cultured according to manufacturers protocol. Cells were used in experiments after two passages in the laboratory. Cells were grown in 24 well plates, each treatment in triplicates. Cells were plated 16 hours prior treatments started. Peptides were added to the media, and media was changed every day during 7 day experiment. CPP concentration was 10 μM. For cell counting, cells were trypsinized (0.25% Trypsin, 2 mM EDTA) in Ca, Mg free PBS. Cells were precipitated and resuspended in 100 μl of PBS, and 5 μl were removed for counting.

B16 melanoma = assay: Mouse tumor xenograft model, peptide membrane patch on skin melanoma; assay type: in vivo; conditions: patch immersed in 100 μM peptide solution, start = 100
Protocol: The effect of modified mimicking peptides was analyzed by inducing melanomas in mouse skin by grafting suspension of melanoma cells. […] Tumor diameter was measured 1, 2, 3, 5, 7 days after treatmet started.
Methods. Mouse melanoma cell line B16 was cultured as described above, and approximately 5×10^6 cells were injected subcutaneously into the left and right limbs of three C57BL/6JOIaHsd mice.
Administration. Cellulose membrane was immersed in a solution of peptides (100 μM). Size of tumor was measured 1, 2, 3, 5 and 7 days following patch treatment. At the same time new patch was applied. All experiments were done in triplicates (3 animals per group).

WM 266-4 [3] = assay: Cell counting after 7 day peptide treatment; assay type: cell-based, human; conditions: modified peptides, conc 10 µM, start count 10
Protocol: as §1, with “CPP concentration was 10 μM For cell counting, cells were trypsinized (0.25% Trypsin, 2 mM EDTA) in Ca^+2, Mg^+2 free PBS.” left out, “CPP concentration was 10 μM.” left out

WM 266-4 [4] = assay: WST-1 test (mitochondrial activity); assay type: cell-based, human; conditions: modified peptides, conc 10 µM, untreated = 1
Protocol: Methods. Human melanoma cell lines SK-MEL-28 and WM 2664 and mouse melanoma cell line B16 were obtained from the American Tissue Culture Collection (ATCC). Cells were cultured according to recommendations of ATCC (DMEM, 10% FCS, penicillin+streptomycin) and used in experiments after two passages in the laboratory. Cells were grown in 24 well plates, each treatment in triplicates. Cells were plated 16 hours prior treatments started. Peptides were added to the media, and media was changed every day during 7 day experiment. […] Methods. Human melanoma cell lines SK-MEL-28 and WM 266-4 were obtained from the American Tissue Culture Collection (ATCC) and were cultured according to recommendations of ATCC (DMEM, 10% FCS, penicillin+streptomycin). Human keratinocytes were obtained from Clonetics and cultured according to manufacturers protocol. Cells were used in experiments after two passages in the laboratory. Cells were grown in 24 well plates, each treatment in triplicates. Cells were plated 16 hours prior treatments started. Peptides were added to the media, and media was changed every day during 7 day experiment. […] WST-1 test was performed to measure mitochondrial activity, which can also be used as a measure of cell number.

Human keratinocytes [5] = assay: Cell counting after 7 day peptide treatment; assay type: cell-based; conditions: keratinocyte, modified peptides, conc 10 µM, start count 10
Protocol: Methods. Human melanoma cell lines SK-MEL-28 and WM 266-4 were obtained from the American Tissue Culture Collection (ATCC) and were cultured according to recommendations of ATCC (DMEM, 10% FCS, penicillin+streptomycin). Human keratinocytes were obtained from Clonetics and cultured according to manufacturers protocol. Cells were used in experiments after two passages in the laboratory. Cells were grown in 24 well plates, each treatment in triplicates. Cells were plated 16 hours prior treatments started. Peptides were added to the media, and media was changed every day during 7 day experiment. CPP concentration was 10 μM. For cell counting, cells were trypsinized (0.25% Trypsin, 2 mM EDTA) in Ca, Mg free PBS. Cells were precipitated and resuspended in 100 μl of PBS, and 5 μl were removed for counting.

Human keratinocytes [6] = assay: WST-1 test (mitochondrial activity); assay type: cell-based; conditions: keratinocyte; modified peptides; conc 10 µM; untreated = 1
Protocol: Methods. Human melanoma cell lines SK-MEL-28 and WM 266-4 were obtained from the American Tissue Culture Collection (ATCC) and were cultured according to recommendations of ATCC (DMEM, 10% FCS, penicillin+streptomycin). Human keratinocytes were obtained from Clonetics and cultured according to manufacturers protocol. Cells were used in experiments after two passages in the laboratory. Cells were grown in 24 well plates, each treatment in triplicates. Cells were plated 16 hours prior treatments started. Peptides were added to the media, and media was changed every day during 7 day experiment. […] WST-1 test was performed to measure mitochondrial activity, which can also be used as a measure of cell number.

## TTGGSSPQGLEAKRPKKRKVRRRQLMLEPYALDMSRIRVLSESLGLATQSG [Scr-int1M, reference compound]
SK-MEL-28 [1]
  WST-1 7 d: 1
SK-MEL-28 [2]
  Cell Count 7 d: 48
B16 melanoma; 1 d, B16 s.c. in C57BL/6 mice
  tumor size change (%) 1 d: 109%
B16 melanoma; 2 d
  tumor size change (%) 2 d: 147%
B16 melanoma; 3 d
  tumor size change (%) 3 d: 175%
B16 melanoma; 5 d
  tumor size change (%) 5 d: 211%
B16 melanoma; 7 d
  tumor size change (%) 7 d: 272%
WM 266-4 [3]
  Cell Count 7 d: 30
WM 266-4 [4]
  WST-1 7 d: 1
Human keratinocytes [5]
  Cell Count 7 d: 40
Human keratinocytes [6]
  WST-1 7 d: 1

From patent US20060014712A1, “Controlled delivery of therapeutic compounds” (CeMines, Inc., priority 2004, published 2006)
